# Laboratory results as given in patent US10730883B2 (AbbVie Inc., priority 2015, dated 2020).
# Entries after “also recorded” stand apart in the source; their conditions may differ. Where two headings read alike, the source gives them in different places.
# Experiments:
# [1] = Pharmacokinetic interaction of Compound 1 and methotrexate (dose-normalized AUC); assay type: in vivo, human; details: FIG. 35A
# healthy subjects [2] = experiment: Study 2-Part 1: safety and tolerability, multiple doses, healthy subjects; assay type: in vivo, human
# Description: (§3) Study drug was administered approximately 30 minutes after a standard breakfast (in the morning) or a snack (in the evening). […] Subjects were confined to the study site and supervised for approximately 18 days.
# Safety was evaluated based on assessments of adverse events, vital signs, physical examination, laboratory metrics, and 12-lead electrocardiogram (ECG). All subjects who received at least one dose of study drug were included in the safety analyses. Subjects who were administered placebo were pooled into a single group within each study or study part. Laboratory test values and vital signs measurements that were above or below the reference range were identified. […] In subjects with RA, the severity of adverse events were rated by the investigator as mild (transient and easily tolerated by the subject), moderate (causes subject discomfort and interrupts the subject's usual activities), or severe (causes considerable interference with the subject's usual activities and may be incapacitating or life-threatening).
# [3] = tested on: subjects with mild to moderate RA; experiment: Study 2-Part 2: safety and tolerability, subjects with RA; assay type: in vivo, human
# Description: (§4) Subjects received study drug for 26 consecutive days (Study Days 3 through 28) and a single morning dose of study drug on Study Day 29. […] Subjects were confined to the study site for a total of 10 days—from Day 1 to Day 4 and from Day 27 to Day 31.
# Safety was evaluated based on assessments of adverse events, vital signs, physical examination, laboratory metrics, and 12-lead electrocardiogram (ECG). All subjects who received at least one dose of study drug were included in the safety analyses. Subjects who were administered placebo were pooled into a single group within each study or study part. Laboratory test values and vital signs measurements that were above or below the reference range were identified. Subjects were followed-up for a total of 7 days in Study 1, 35 days in Study 2-Part 1, and 57 days in Study 2-Part 2. […] In subjects with RA, the severity of adverse events were rated by the investigator as mild (transient and easily tolerated by the subject), moderate (causes subject discomfort and interrupts the subject's usual activities), or severe (causes considerable interference with the subject's usual activities and may be incapacitating or life-threatening).
# clinical [4] = details: human, plasma, oral, 48 mg
# Description: (§5) Study 1 was designed as a single-site, randomized, double-blind, placebo-controlled study. […] Study drug was administered following at least 10 hours of fasting. […] Subjects were confined to the study site and supervised for approximately 8 consecutive days.
# (§6) Samples quantified below the LLOQ were reported as zero.
# (§7) Renal clearance (CLr) was calculated as Au,0-12/AUC0-12 at steady state.
# (§8) Statistical analyses were performed using SAS software (Version 9.3; SAS institute Inc., Cary, N.C., USA).
# clinical [5] = details: human, oral; for AUC(0-t) / half-life: plasma; for CL renal: urine and plasma
# Description: (§9) Both evaluations followed randomized, double-blind, placebo-controlled designs. Part 1 was conducted at PPD Development (Austin, Tex.) and Part 2 was conducted at two sites: Aspen Clinical Research (Orem, Utah) and Altoona Center for Clinical Research (Duncansville, Pa.). Study protocol and informed consents were approved by RCRC IRB (Austin, Tex.) and Quorum Review IRB (Seattle, Wash.).
# as §3, §6, §7, §8
# clinical [6] = details: human, oral; for half-life: plasma; for CL renal: urine and plasma, CLr
# Description: Both evaluations followed randomized, double-blind, placebo-controlled designs. Part 1 was conducted at PPD Development (Austin, Tex.) and Part 2 was conducted at two sites: Aspen Clinical Research (Orem, Utah) and Altoona Center for Clinical Research (Duncansville, Pa.).
# as §4, §6, §7
# [7] = Study 1: single-dose escalation PK in healthy subjects
# Description: as §5, §6, §7, §8
# [8] = Study 2-Part 1: multiple-dose escalation PK in healthy subjects
# Description: as §9, §3, §6, §7, §8
# healthy subjects [9] = experiment: Study 1: safety and tolerability, single doses, healthy subjects
# Description: as §5
# Safety was evaluated based on assessments of adverse events, vital signs, physical examination, laboratory metrics, and 12-lead electrocardiogram (ECG). All subjects who received at least one dose of study drug were included in the safety analyses. Subjects who were administered placebo were pooled into a single group within each study or study part. Laboratory test values and vital signs measurements that were above or below the reference range were identified. Subjects were followed-up for a total of 7 days in Study 1, 35 days in Study 2-Part 1, and 57 days in Study 2-Part 2.
# [10] = Chemical stability of solid state forms in closed vials at controlled temperature and relative humidity; assay type: physicochemical
# Description: (§1) The Amorphous Freebase, however, is hygroscopic and can comprise as much as 12% by weight water at 25° C./90% relative humidity. Environmental controls potentially are required to ensure appropriate control of potency and water content during storage, dispensing, and handling of the Amorphous Freebase.
# (§2) The Tartrate Hydrate, however, potentially will convert to an amorphous tartrate below 10% relative humidity, when heated, or when compressed or under shear.
# [11] = Stability of solid state forms to light and peroxide; assay type: physicochemical
# Description: as §1, §2
# [12] = Hygroscopicity / moisture sorption isotherm of solid state forms; assay type: physicochemical; details: general statement on the solid state form
# Text: FIG. 6A is a moisture sorption isotherm corresponding to the Amorphous Freebase (via dehydration).
# FIG. 6C is a moisture sorption isotherm corresponding to the Tartrate Hydrate.
# FIG. 6D is a moisture sorption isotherm corresponding to the Freebase Anhydrate Form D.
# In one embodiment, the Tartrate Hydrate has a moisture sorption isotherm profile showing a weight gain of about 1% to about 2% when relative humidity is increased from about 10% relative humidity to about 90% relative humidity at a temperature of 25° C.
# [13] = Physical stability of solid state forms (dehydration, desolvation, conversion); assay type: physicochemical; details: general statement on the solid state form
# Description: The Tartrate Hydrate dehydrated into Amorphous at low relative humidity and high temperature, e.g., <10% RH at 25° C. Shearing and compression potentially cause conversion to the amorphous tartrate, and therefore it is not suitable for compressing into tablet form. Additionally, the filter cake solidified during drying, resulting in the need for additional controls during drying.
# In addition, Freebase Hydrate Form C can be grown into different particle sizes.
# Freebase Anhydrate Form D can be manufactured only when the water content of the crystallization solvent is low, and will convert to Freebase Hydrate Form C in solutions at high water content. The manufacture of Freebase Anhydrate Form D thus requires strict control of water content. Freebase Anhydrate Form D is slow to crystallize, and difficult to manufacture in higher yield. […] Freebase Hydrate Form C will convert to Freebase Anhydrate Form D in a solution of ethyl acetate with low water content.
# The resulting amorphous hydrochloride is hygroscopic. Yields obtained for each of the crystalline hydrochlorides generally have been in the 10% to 15% range.
# [14] = Solubility of solid state forms; assay type: physicochemical
# [15] = Solid state accelerated stability study; assay type: physicochemical; details: for Growth of degradation products: open and closed glass vials
# Description: Samples (approximately 1 mg to 2 mg) of the solid state form were weighed into glass vials and tested as described below.
# [16] = Moisture sorption isotherm; assay type: physicochemical; details: below 10% relative humidity at 25° C.
# Description: Moisture vapor isotherm data were collected with a DVS Advantage (Surface Measurement Systems Ltd, Alperton, United Kingdom). The sample powder (5 mg to 20 mg) was loaded on a tared pan of the DVS Advantage. The moisture sorption isotherm data were collected from 30-0-90-0-30% relative humidity in 10% relative humidity intervals. For each step, the dm/dt criteria was 0.001% over 5 minutes, a minimum dm/dt time of 30 minutes, and a maximum dm/dt of 120 minutes. Data was collected isothermally at 25° C. with a nitrogen flow rate of 200 cm^3/minute. The post DVS sample was kept at approximately 30% relative humidity before PXRD analysis.
# [17] = multiple twice-daily doses 3 mg
# [18] = multiple twice-daily doses 6 mg
# [19] = multiple twice-daily doses 12 mg
# [20] = multiple twice-daily doses 24 mg
# [21] = multiple twice-daily doses, Total Compound 1
# [22] = on average across all dose groups
# [23] = single 48 mg dose, healthy subjects
# [24] = 6 mg BID, Day 14, healthy subjects
# [25] = 12 mg BID, Day 14, healthy subjects
# [26] = 24 mg BID, Day 14, healthy subjects
structure (smiles),measurement,setting,value
"CC[C@@H]1CN(C(=O)NCC(F)(F)F)C[C@@H]1c1cnc2cnc3[nH]ccc3n12 [Compound 1, (3S,4R)-3-ethyl-4-(3H-imidazo[1,2-a]pyrrolo[2,3-e]pyrazin-8-yl)-N-(2,2,2-trifluoroethyl)pyrrolidine-1-carboxamide]",effect of concomitant methotrexate administration on Compound 1 dose-normalized AUC,[1],lack of effect
same,"Abdominal Discomfort, subjects",healthy subjects [2]; [17],0
same,"Abdominal Pain, subjects",healthy subjects [2]; [17],0
same,"Diarrhoea, subjects",healthy subjects [2]; [17],0
same,"Headache, subjects",healthy subjects [2]; [17],0
same,"Nasopharyngitis, subjects",healthy subjects [2]; [17],1 (12.5%)
same,"Abdominal Discomfort, subjects",healthy subjects [2]; [18],0
same,"Abdominal Pain, subjects",healthy subjects [2]; [18],1 (12.5%)
same,"Diarrhoea, subjects",healthy subjects [2]; [18],1 (12.5%)
same,"Headache, subjects",healthy subjects [2]; [18],2 (25.0%)
same,"Nasopharyngitis, subjects",healthy subjects [2]; [18],1 (12.5%)
same,"Abdominal Discomfort, subjects",healthy subjects [2]; [19],0
same,"Abdominal Pain, subjects",healthy subjects [2]; [19],0
same,"Diarrhoea, subjects",healthy subjects [2]; [19],1 (12.5%)
same,"Headache, subjects",healthy subjects [2]; [19],2 (25.0%)
same,"Nasopharyngitis, subjects",healthy subjects [2]; [19],0
same,"Abdominal Discomfort, subjects",healthy subjects [2]; [20],0
same,"Abdominal Pain, subjects",healthy subjects [2]; [20],1 (12.5%)
same,"Diarrhoea, subjects",healthy subjects [2]; [20],0
same,"Headache, subjects",healthy subjects [2]; [20],1 (12.5%)
same,"Nasopharyngitis, subjects",healthy subjects [2]; [20],0
same,"Abdominal Discomfort, subjects",healthy subjects [2]; [21],0
same,"Abdominal Pain, subjects",healthy subjects [2]; [21],2 (6.3%)
same,"Diarrhoea, subjects",healthy subjects [2]; [21],2 (6.3%)
same,"Headache, subjects",healthy subjects [2]; [21],5 (15.6%)
same,"Nasopharyngitis, subjects",healthy subjects [2]; [21],2 (6.3%)
same,changes in hematologic parameters,healthy subjects [2]; multiple-dose administration in healthy subjects for 14 days,no clinically significant changes
same,subjects with at least one TEAE,[3]; Compound 1 dose groups (total of 11 subjects with RA),Five subjects
same,number of TEAEs reported,"[3]; Compound 1 dose groups, subjects with RA",7
same,Ctrough,"6 mg BID, Day 28, subjects with RA",5.81 ng/mL
same,AUC0-12,"12 mg BID, Day 28, subjects with RA",334 ng·h/mL
same,Ctrough,"12 mg BID, Day 29, subjects with RA",6.44 ng/mL
same,Ctrough,"24 mg BID, Day 28, subjects with RA",15.3 ng/mL
same,Ctrough,"24 mg BID, Day 29, subjects with RA",14.9 ng/mL
same,apparent oral clearance lower in subjects with RA compared to healthy subjects,[22],23%
same,higher exposure in subjects with RA than in healthy subjects,[22],approximately 30%
same,AUC(0-inf),clinical [4],1040 ± 174 ng·h/mL
same,AUC(0-t),clinical [4],1030 ± 174 ng·h/mL
same,AUC(0-t),clinical [5]; 3 mg,78.3 ± 20.3 ng·h/mL
same,half-life,clinical [5]; 3 mg,3.2 ± 0.4 h
same,AUC(0-t),clinical [5]; 6 mg,138 ± 16.7 ng·h/mL
same,half-life,clinical [5]; 6 mg,3.3 ± 0.3 h
same,half-life,clinical [5]; 12 mg,3.2 ± 0.5 h
same,CL renal,clinical [5]; 3 mg,125 mL/min
same,CL renal,clinical [5]; 12 mg,162 mL/min
same,half-life,"clinical [6]; 6 mg, t1/2F (functional half-life), 6 mg BID, Day 29, subjects with RA, harmonic mean",3.5 h
same,half-life,"clinical [6]; 12 mg, t1/2F (functional half-life), 12 mg BID, Day 29, subjects with RA, harmonic mean",3.7 h
same,half-life,"clinical [6]; 24 mg, t1/2F (functional half-life), 24 mg BID, Day 29, subjects with RA, harmonic mean",3.6 h
same,half-life,"clinical [6]; functional half-life, subjects with RA on stable doses of methotrexate",~4 h
same,CL renal,"clinical [6]; 6 mg, 6 mg BID, Day 28, subjects with RA",116 mL/min
same,CL renal,"clinical [6]; 6 mg, 6 mg BID, Day 29, subjects with RA",82.2 mL/min
same,CL renal,"clinical [6]; 12 mg, 12 mg BID, Day 28, subjects with RA",104 mL/min
same,CL renal,"clinical [6]; 12 mg, 12 mg BID, Day 29, subjects with RA",82.7 mL/min
same,CL renal,"clinical [6]; 24 mg, 24 mg BID, Day 28, subjects with RA",105 mL/min
same,CL/F,[7]; [23],47.6 ± 8.97 L/h
same,dose-normalized AUC∞ lower than that following 3 mg dose,[7]; [23],40%
same,Dose proportionality of exposures,[7]; single dose range of 3 to 36 mg and multiple dose range of 3 mg to 24 mg BID,dose proportional
same,Ctrough,"[8]; 3 mg BID, Day 14, healthy subjects",1.46 ± 0.50 ng/mL
same,CL/F,[8]; [24],43.9 ± 5.4 L/h
same,Ctrough,[8]; [24],2.29 ± 0.41 ng/mL
same,CL/F,[8]; [25],45.5 ± 8.04 L/h
same,Ctrough,[8]; [25],4.54 ± 1.55 ng/mL
same,CL/F,[8]; [26],46.1 ± 6.44 L/h
same,Ctrough,[8]; [26],9.50 ± 2.57 ng/mL
same,t1/2F (functional half-life),"[8]; 24 mg BID, Day 14, healthy subjects, harmonic mean ± pseudo-SD",3.3 ± 0.4 h
same,functional half-life,"[8]; estimated from Cmax to Ctrough ratio at steady-state, healthy volunteers",approximately 3 hours
same,pre-dose concentrations on Study Day 13 lower compared with Study Day 5,"[8]; multiple dosing, healthy volunteers",13%
same,"Headache, subjects",healthy subjects [9]; single dose 48 ng,2 (33.3%)
same,"Presyncope, subjects",healthy subjects [9]; single dose 48 ng,0
same,"Headache, subjects",healthy subjects [9]; single dose 1 mg,0
same,"Presyncope, subjects",healthy subjects [9]; single dose 1 mg,0
same,"Headache, subjects",healthy subjects [9]; single dose 3 mg,0
same,"Presyncope, subjects",healthy subjects [9]; single dose 3 mg,0
same,"Headache, subjects",healthy subjects [9]; single dose 6 mg,0
same,"Presyncope, subjects",healthy subjects [9]; single dose 6 mg,1 (16.7%)
same,"Headache, subjects",healthy subjects [9]; single dose 12 mg,0
same,"Presyncope, subjects",healthy subjects [9]; single dose 12 mg,0
same,"Headache, subjects",healthy subjects [9]; single dose 24 mg,0
same,"Presyncope, subjects",healthy subjects [9]; single dose 24 mg,1 (16.7%)
same,"Headache, subjects",healthy subjects [9]; single dose 36 mg,0
same,"Presyncope, subjects",healthy subjects [9]; single dose 36 mg,0
same,Tolerability,"healthy subjects [9]; single doses up to 48 mg and multiple twice daily doses up to 24 mg, immediate-release formulation",well-tolerated
same,dose-limiting toxicities or safety concerns,healthy subjects [9]; single doses up to 48 mg or multiple doses up to 24 mg twice daily,no dose-limiting toxicities or safety concerns
same,"Presyncope, subjects","healthy subjects [9]; single doses, Total Compound 1",2 (4.8%)
same,Severity of TEAEs,"healthy subjects [9]; single doses, healthy subjects",mild
same,maximum tolerated dose,healthy subjects [9]; single or multiple dose studies,not reached
"CC[C@@H]1CN(C(=O)NCC(F)(F)F)C[C@@H]1c1cnc2cnc3[nH]ccc3n12.O.O.O.O.O=C(O)C(O)C(O)C(=O)O [Tartrate Hydrate, (3S,4R)-3-ethyl-4-(3H-imidazo[1,2-a]pyrrolo[2,3-e]pyrazin-8-yl)-N-(2,2,2-trifluoroethyl)pyrrolidine-1-carboxamide tartrate tetrahydrate]",degradation observed in closed vials,"[10]; closed vials, 30° C./65% relative humidity and 40° C./75% relative humidity over 12 weeks, 50° C./75% relative humidity over 6 weeks",no degradation
same,chemical stability,[10]; general statement on the solid state form,acceptable chemical stability
same,stability to light and peroxide,[11],acceptable stability
same,hygroscopicity,[12],not hygroscopic
same,physical stability,[13],lack of physical stability
same,BCS class,[14],Class I
same,Solubility,[14]; Amorphous Freebase: relative to the corresponding crystalline forms,high solubility; also recorded: good solubility
same,Growth of degradation products,"[15]; 25° C./60% relative humidity, up to 24 months",no growth of degradation products
same,Growth of degradation products,"[15]; 40° C./75% relative humidity, at least one month",no growth of degradation products
same,Growth of degradation products,"[15]; 50° C./75% relative humidity, up to six weeks",no growth of degradation products
same,chemical stability,[15]; solid state accelerated stability study,acceptable
same,"Change in attributes evaluated (description, crystal form, assay, impurities and water content)",[15]; storage conditions of the accelerated stability study,No material change
same,Dehydration in moisture sorption isotherm analysis,[16],dehydrates to an amorphous tartrate
